Results from US5496947A, “Quinolone carboxylic acid derivatives” (Dong Wha Pharmaceutical Industrial Co., Ltd., priority 1994, dated 1996).
Where two headings read alike, the source gives them in different places.

Tests used:
[1] = system: Streptococcus pneumoniae ATCC 6303; assay: MIC, 2-fold dilution method in micro-well plate, S. pneumoniae; type: cell-based; details: S. pneuinoniae ATCC6303, 37° C., read-out: Minimum Inhibitory Concentration
Method: (§1) The in vitro antibiotic activity of the present compound is measured using 2-fold dilution method with a micro-well plate and the bacteria are inoculated in about 10^5 cfu/ml after an overnight culture in a brain-heart infusion (BHI) broth at 37° C. The novel compounds of the present invention are converted to a hydrochloride salt form and diluted with a sterilized distilled water to make 10 mg/ml aqueous solution. After the mother liquor wherein the compound is diluted to the two-fold concentration has been obtained in the form of an aqueous solution, the respective 0.1 ml of diluted liquor is transferred to a well and is inoculated with 0.1 ml of the culture fluid to make about (10^5 -10^6)/2 cfu/ml.
(§2) After cultivation at 37° C., the minimum inhibitory concentration (MIC) is measured and recorded in Table I-V.
(§3) Table I-V show the minimum inhibitory concentrations (MIC).
Streptococcus pneumoniae ATCC 6303

[2] = system: Serratia marcescens ATCC 8100; assay: MIC, 2-fold dilution method in micro-well plate, S. marcescens; type: cell-based
Method: as §1, §2, §3
Serratia marcescens ATCC 8100

[3] = system: Citrobacter freundii ATCC 8090; assay: MIC, 2-fold dilution method in micro-well plate, C. freundii; type: cell-based
Method: as §1, §2, §3
Citrobacter freundii ATCC 8090

[4] = system: Pseudomonas aeruginosa ATCC 27853; assay: MIC, 2-fold dilution method in micro-well plate, P. aeruginosa; type: cell-based; details: P. aerugirnosa ATCC27853, 37° C., read-out: Minimum Inhibitory Concentration
Method: as §1, §2, §3
Pseudomonas aeruginosa ATCC 27853

[5] = system: Streptococcus faecalis ATCC 29212; assay: MIC, 2-fold dilution method in micro-well plate, S. faecalis ATCC 29212; type: cell-based; details: Enterococcus faecalis; S. faecalis ATCC29212, 37° C.; read-out: Minimum Inhibitory Concentration
Method: as §1, §2, §3
Streptococcus faecalis ATCC 29212

[6] = system: Klebsiella pneumoniae ATCC 13883; assay: MIC, 2-fold dilution method in micro-well plate, K. pneumoniae; type: cell-based
Method: as §1, §2, §3
Klebsiella pneumoniae ATCC 13883

Enterobacter cloacae = assay: MIC, 2-fold dilution method in micro-well plate, E. cloacae; type: cell-based; details: read-out: Minimum Inhibitory Concentration
Method: as §1, §2, §3
Enterobacter cloacae ATCC 23355

[7] = system: Streptococcus faecalis ATCC 19433; assay: MIC, 2-fold dilution method in micro-well plate, S. faecalis ATCC 19433; type: cell-based; details: Enterococcus faecalis; S. faecalis ATCC19433, 37° C.; read-out: Minimum Inhibitory Concentration
Method: as §1, §2, §3
Streptococcus faecalis ATCC 19433

[8] = system: Acinetobacter calcoaceticus; assay: MIC, 2-fold dilution method in micro-well plate, A. calcoaceticus; type: cell-based
Method: as §1, §2
Table I-V show the minimum inhibitory concentrations (MIC). […]

[9] = system: Enterobacter aerogenes ATCC 13048; assay: MIC, 2-fold dilution method in micro-well plate, E. aerogenes; type: cell-based; details: Klebsiella aerogenes
Method: as §1, §2, §3
Enterobacter aerogenes ATCC 13048

[10] = system: Shigella flexneri ATCC 12022; assay: MIC, 2-fold dilution method in micro-well plate, S. flexneri; type: cell-based; details: S. flexneri ATCC12022, 37° C., read-out: Minimum Inhibitory Concentration
Method: as §1, §2, §3
Shigella flexneri ATCC 12022

[11] = system: Salmonella typhimurium ATCC 14028; assay: MIC, 2-fold dilution method in micro-well plate, S. typhimurium; type: cell-based; details: Salmonella enterica, read-out: Minimum Inhibitory Concentration
Method: as §1, §2, §3
Salmonella typhimurium ATCC 14028

[12] = system: Proteus vulgaris ATCC 13315; assay: MIC, 2-fold dilution method in micro-well plate, P. vulgaris; type: cell-based
Method: as §1, §2, §3
Proteus vulgaris ATCC 13315

[13] = system: Shigella sonnei ATCC 25931; assay: MIC, 2-fold dilution method in micro-well plate, S. sonnei; type: cell-based; details: S. sonnei ATCC25931, 37° C., read-out: Minimum Inhibitory Concentration
Method: as §1, §2, §3
Shigella sonnei ATCC 25931

[14] = Pharmacokinetic properties in ICR mouse, oral and subcutaneous, Bio-Assay (Agar well method); type: in vivo; details: 40 mg/kg, average of four tests; for AUC / Cmax / Tmax / bioavailability / half-life: blood; for dose excreted: urine, read-out: Urine Recovery
Method: The pharmacokinetic properties are tested by orally administrating and subcutaneously injecting a test compound and a substance for control to a ICR Mouse with 22 g±10% weight, drawing blood after 10, 20, 30, 45, 60, 90, 120, 150, 180 and […] and analyzed by Bio-Assay (Agar well method).

[15] = system: Haemophilus influenza ATCC 35056; assay: MIC, 2-fold dilution method in micro-well plate, H. influenzae; type: cell-based; details: H. influenzae ATCC35056, 37° C.; read-out: Minimum Inhibitory Concentration
Method: as §1, §2, §3
Haemophilus influenza ATCC 35056

[16] = system: Streptococcus pyrogens ATCC 19615; assay: MIC, 2-fold dilution method in micro-well plate, S. pyrogens; type: cell-based; details: S. pyrogenes ATCC19615, 37° C., read-out: Minimum Inhibitory Concentration
Method: as §1, §2, §3
Streptococcus pyrogens ATCC 19615

[17] = system: Escherichia coli ATCC 25922; assay: MIC, 2-fold dilution method in micro-well plate, E. coli; type: cell-based
Method: as §1, §2, §3
Escherichia coli ATCC 25922

[18] = S. marcescens ATCC8100, 37° C., read-out: Minimum Inhibitory Concentration
[19] = C. freundii ATCC8090, 37° C., read-out: Minimum Inhibitory Concentration
[20] = ATCC13883, read-out: Minimum Inhibitory Concentration
[21] = E. cloacae ATCC23355 (as in tables), 37° C.
[22] = A. calcoaceticus ATCC8090 (as in tables), 37° C., read-out: Minimum Inhibitory Concentration
[23] = ATCC13048, read-out: Minimum Inhibitory Concentration
[24] = P. vulgaris ATCC13315, 37° C., read-out: Minimum Inhibitory Concentration
[25] = E. coli ATCC25922, 37° C., read-out: Minimum Inhibitory Concentration
[26] = ATCC8100, read-out: Minimum Inhibitory Concentration
[27] = K. pneumoniae ATCC13883, 37° C., read-out: Minimum Inhibitory Concentration
[28] = E. aerogenes ATCC13048, 37° C., read-out: Minimum Inhibitory Concentration
[29] = S. typhisurium ATCC14028, 37° C.
[30] = ATCC8090, read-out: Minimum Inhibitory Concentration
[31] = ATCC13315, read-out: Minimum Inhibitory Concentration
[32] = ATCC25922, read-out: Minimum Inhibitory Concentration

SMILES | MIC [1] [µg/mL] | MIC [2, 18] [µg/mL] | MIC [3, 19] [µg/mL] | MIC [4] [µg/mL] | MIC [5] [µg/mL] | MIC [6, 20] [µg/mL] | MIC [7] [µg/mL] | MIC [8, 22] [µg/mL] | MIC [9, 23] [µg/mL] | MIC [10] [µg/mL] | MIC [11] [µg/mL] | MIC [12, 24] [µg/mL] | MIC [13] [µg/mL] | MIC [15] [µg/mL] | MIC [16] [µg/mL] | MIC [17, 25] [µg/mL] | MIC [2, 26] [µg/mL] | MIC [6, 27] [µg/mL] | MIC (Enterobacter cloacae) [µg/mL] | MIC [3, 30] [µg/mL] | other results
CC1CN(c2nc3c(cc2F)c(=O)c(C(=O)O)cn3-c2ccc(F)cn2)CCN1.Cl (centres unmarked) [Example 14, 1-(5-fluoro-2-pyridyl)-6-fluoro-7-(3-methyl-1-piperazinyl)-1,4-dihydro-4-oxo-1,8-naphthyridine-3-carboxylic acid hydrochloride] | 5 | 0.313 | 0.625 | 1.25 | 2.5 | 1.25 | 5 | 0.625 | 1.25 | 0.156 | 1.25 | 0.625 | 0.078 | 1.25 | 10 | 0.313 | – | – | – | – | MIC (Enterobacter cloacae; [21]): 0.625 µg/mL; AUC ([14]; po, P.O): 12500 ng·h/mL; Cmax ([14]; po, P.O): 2120 ng/mL; Tmax ([14]; po, P.O): 0.87 h; bioavailability ([14]; po, P.O): 44%; half-life ([14]; po, P.O): 3.81 h; AUC ([14]; sc, S.C): 28100 ng·h/mL; Cmax ([14]; sc, S.C): 4280 ng/mL; Tmax ([14]; sc, S.C): 0.6 h; half-life ([14]; sc, S.C): 7.28 h; dose excreted ([14]; po, P.O): 58.9%; dose excreted ([14]; sc, S.C): 21.1%
CC1CN(c2cc3c(cc2F)c(=O)c(C(=O)O)cn3-c2ccc(F)cn2)CCN1.Cl (centres unmarked) [Example 19, 1-(5-fluoro-2-pyridyl)-6-fluoro-7-(3-methyl-1-piperazinyl)-1,4-dihydro-4-oxoquinoline-3-carboxylic acid hydrochloride] | 5 | – | 1.25 | 0.625 | 5 | – | 5 | 1.25 | 0.625 | 0.313 | 0.313 | 0.156 | 0.313 | 0.625 | 10 | 0.078 | 0.625 | 1.25 | 0.625 | – | AUC ([14]; po, P.O): 16900 ng·h/mL; Cmax ([14]; po, P.O): 3110 ng/mL; Tmax ([14]; po, P.O): 0.87 h; bioavailability ([14]; po, P.O): 72.7%; half-life ([14]; po, P.O): 8.42 h; AUC ([14]; sc, S.C): 23300 ng·h/mL; Cmax ([14]; sc, S.C): 5110 ng/mL; Tmax ([14]; sc, S.C): 0.87 h; half-life ([14]; sc, S.C): 5.32 h; dose excreted ([14]; po, P.O): 29%; dose excreted ([14]; sc, S.C): 48.7%
Cl.N[C@H]1CCN(c2cc3c(cc2F)c(=O)c(C(=O)O)cn3-c2ccc(F)cn2)C1 [Example 22, 1-(5-fluoro-2-pyridyl)-6-fluoro-7-[(3S)-3-amino-1-pyrrolidinyl]-1,4-dihydro-4-oxoquinoline-3-carboxylic acid hydrochloride] | 1.25 | 0.078 | 0.039 | 0.156 | 1.25 | – | 0.625 | 0.313 | – | 0.156 | – | 0.078 | 0.039 | 0.078 | 2.5 | 0.039 | – | 0.039 | – | – | MIC (Enterobacter cloacae; [21]): 0.078 µg/mL; MIC [9, 28]: 0.078 µg/mL; MIC [11, 29]: 0.078 µg/mL
Cl.O=C(O)c1cn(-c2ccc(F)cn2)c2c(F)c(N3CCNCC3)c(F)cc2c1=O [Example 23, 1-(5-fluoro-2-pyridyl)-6,8-difluoro-7-(1-piperazinyl)-1,4-dihydro-4-oxoquinoline-3-carboxylic acid hydrochloride] | 2.5 | – | – | 1.25 | 5 | – | 5 | 1.25 | 0.625 | 0.313 | 0.313 | – | 0.078 | 0.625 | 5 | – | 0.625 | 1.25 | 0.625 | 0.625 | MIC [12, 31]: 0.313 µg/mL; MIC [17, 32]: 0.625 µg/mL
CN1CCN(c2c(F)cc3c(=O)c(C(=O)O)cn(-c4ccc(F)cn4)c3c2F)CC1.Cl [Example 24, 1-(5-fluoro-2-pyridyl)-6,8-difluoro-7-(4-methyl-1-piperazinyl)-1,4-dihydro-4-oxoquinoline-3-carboxylic acid hydrochloride] | 5 | – | – | 0.625 | 2.5 | 0.625 | 5 | – | 0.625 | 0.625 | 0.313 | – | 0.156 | 0.313 | 10 | – | 0.625 | – | 0.625 | 0.625 | MIC [8, 30]: 0.625 µg/mL; MIC [12, 31]: 0.625 µg/mL; MIC [17, 32]: 0.625 µg/mL
CC1CN(c2c(F)cc3c(=O)c(C(=O)O)cn(-c4ccc(F)cn4)c3c2F)CCN1.Cl (centres unmarked) [Example 25, 1-(5-fluoro-2-pyridyl)-6,8-difluoro-7-(3-methyl-1-piperazinyl)-1,4-dihydro-4-oxoquinoline-3-carboxylic acid hydrochloride] | 5 | 1.25 | – | 0.313 | 5 | 0.625 | 5 | 1.25 | 0.625 | 0.156 | 0.625 | – | 0.156 | 0.625 | 10 | – | – | – | 0.625 | 0.625 | MIC [12, 31]: 0.625 µg/mL; MIC [17, 32]: 0.625 µg/mL
CC1CN(c2c(F)cc3c(=O)c(C(=O)O)cn(-c4ccc(F)cn4)c3c2F)CC(C)N1.Cl (centres unmarked) [Example 26, 1-(5-fluoro-2-pyridyl)-6,8-difluoro-7-(3,5-dimethyl-1-piperazinyl)-1,4-dihydro-4-oxoquinoline-3-carboxylic acid hydrochloride] | 5 | – | – | 0.625 | 5 | – | 5 | – | – | 0.313 | – | 0.255 | 0.313 | 1.25 | 10 | 0.625 | 1.25 | 0.625 | 1.25 | 1.25 | MIC [8, 30]: 1.25 µg/mL; MIC [9, 28]: 0.625 µg/mL; MIC [11, 29]: 0.625 µg/mL
Cl.NC1CCN(c2c(F)cc3c(=O)c(C(=O)O)cn(-c4ccc(F)cn4)c3c2F)C1 (centres unmarked) [Example 27, 1-(5-fluoro-2-pyridyl)-6,8-difluoro-7-(3-amino-1-pyrrolidinyl)-1,4-dihydro-4-oxoquinoline-3-carboxylic acid hydrochloride] | 2.5 | 0.313 | 0.156 | 0.313 | 2.5 | – | 1.25 | 0.313 | – | 0.078 | – | 0.156 | 0.005 | 0.078 | 2.5 | 0.078 | – | 0.156 | – | – | MIC (Enterobacter cloacae; [21]): 0.313 µg/mL; MIC [9, 28]: 0.156 µg/mL; MIC [11, 29]: 0.078 µg/mL
